Where “and” joins values, the source holds several entries; their conditions need not be identical. Equal values may be shown once.

The source of these data is article PMC10077444, “Evaluation of In Vivo Biological Activity Profiles of Isoindole-1,3-dione Derivatives: Cytotoxicity, Toxicology, and Histopathology Studies” (ACS Omega, 2023).

The test system of series [1] is A549-Luc lung cancer cells. The series can be described thus: In vivo xenograft tumor model, tumor size by IVIS imaging. Also noted: species or system nude mice. To be noted: for tumor size: individual nude mice, Tnd = tumor not detected, Ex = dead; for tumor outcome after treatment: A549-Luc xenograft nude mice, IVIS imaging; for tumor size initially: before treatment, individual nude mice (1)-(5). As to the method: Luc cell line (A549-Luc cell), which has luciferase activity, was used to determine the cancer treatment potential of compounds 3 and 4 for in vivo experiments. Cells were cultured in DMEM Ham’s F12 [10% FBS, 1% L-glutamine, 1% gentamicin, and 1 mM 4-(2-hydroxyethyl)-1-piperazineethanesulfonic acid] broth in a CO2 incubator set at 37 °C. Sufficient stocks were prepared by passaging the cells twice a week, and cells that actively proliferated in the logarithmic phase were used in the tests.
Approval for monitoring the cancer treatment potential of the synthesized structures in vivo conditions was taken by the Animal Ethics Committee of Ege University on 24.01.2018 with the number 2018-015. Male atypical nude mice, 6–8 weeks old, were used for in vivo xenograft tumor models. […] For the purpose of xenograft administration, nude mice were injected subcutaneously with 100 μL of 5 × 10^6 A549-Luc cell suspension. The presence of cancer after cell administration to nude mice was followed by imaging with an IVIS device. In order to monitor tumor formation and tumor volume detection, luciferin [Biovision Inc., USA; 12 mg/mL in phosphate-buffered saline (PBS)] was injected intraperitoneally followed by visualization with IVIS 5 min later. When tumor volume reaches about 2000 mm^3, cancerous nudes are divided into three groups: the control group, 3 group, and 4 group. Grouping was made as 3–5 animals in each group. The following procedures were prepared according to the groups, and then they were implemented. In addition, the weights of nude mice were regularly checked and recorded.
Compound 3(Y) group: Compound 3(Y) was prepared in DMSO at a concentration of 200 μM, and 20 μL was administered via the tail vein in three doses a week.
Compound 4(X) group: Compound 4(X) was prepared in DMSO at a concentration of 200 μM, and 20 μL was given three doses a week through the tail vein.
Male atypical nude mice aged 6–8 weeks are commonly used in in vivo xenograft tumor models. A549-luc lung cancer cells were injected into nude mice in all three groups, and tumor growth was induced with a xenograft model. For xenograft administration, 100 μL of 5 × 10^6 A549-luc cell suspension was injected subcutaneously into nude mice. After cell application to nude mice, it was determined whether there was cancer or not by imaging with the IVIS device. After the cancer groups were formed, the treatment phase was started. Compound 4(X) substance, compound 3(Y), and cancer control groups were formed, five in each group. Each prepared sample was given to the animals by tail vein administration, three doses (as described in Section 2.3) per week, and the IVIS images taken at 5 min after luciferin (200 μL of 12 mg/mL stock administered […]) at certain time intervals were evaluated. Although no tumor was detected on the 15th day after cell implantation, the treatment was continued for two more weeks and whether the tumor recurred or not was determined by IVIS imaging.

The subject of series [2] is HeLa cell lines. Also on record: method as in PMID 31759659. Particulars: 48 h; cited from earlier work.
Series [3] in a line: 28 day subacute toxicity study, weight change.
In series [4] the test system is CD1 mice. To be noted: in vivo.
Where [5] appears, read: 7 days, 200 μM, 20 μL tail vein, three doses a week.

Consider `CC(=O)O[C@@H]1[C@@H]2C(=O)N(Cc3ccccc3)C(=O)[C@@H]2C=C[C@H]1Cl` [compound 4], for which the tumor size entry in series [1] (setting [5]) was “Tnd ^a”; in series [1] (15 days), “Tnd ^a and Ex”; in series [1] (45 days), “Tnd ^a and Ex”. Besides, in series [1], the “tumor outcome after treatment” value is listed as “completely destroyed”. Also, in series [1], the tumor size initially is 570.91 mm^3 and 403.71 mm^3 and 482.52 mm^3 and 1518.02 mm^3 and 1124.09 mm^3. In series [2], the IC50 was 141 µM.

As to `CC(=O)O[C@H]1C=C[C@H](OC(C)=O)[C@H]2C(=O)N(Cc3ccccc3)C(=O)[C@H]21` [compound 3], the “Weight, group average” value in series [3] (1st dose (200 μM) female, 7d) worked out at 26.732 G; in series [3] (1st dose (200 μM) female, 14d) it was 27.624 G; in series [3] (1st dose (200 μM) female, 21d), 26.9 G; in series [3] (1st dose (200 μM) female, 28d) it was 26.61 G; in series [3] (1st dose (200 μM) female, initial), 26.516 G; in series [3] (1st dose (200 μM) male, 7d), 34.102 G. Further, the “Weight, group average” value in series [3] (1st dose (200 μM) male, 14d) is given as 35.088 G; in series [3] (1st dose (200 μM) male, 21d) it was 34.89 G; in series [3] (1st dose (200 μM) male, 28d), 35.932 G; in series [3] (1st dose (200 μM) male, initial) it was 33.35 G; in series [3] (2nd dose (100 μM) female, 7d), 27.582 G; in series [3] (2nd dose (100 μM) female, 14d), 27.204 G. The “Weight, group average” value is recorded as 27.848 G in series [3] (2nd dose (100 μM) female, 21d); 28.604 G in series [3] (2nd dose (100 μM) female, 28d); 27.71 G in series [3] (2nd dose (100 μM) female, initial); 32.196 G in series [3] (2nd dose (100 μM) male, 7d); 33.33 G in series [3] (2nd dose (100 μM) male, 14d); 33.42 G in series [3] (2nd dose (100 μM) male, 21d). Further, the “Weight, group average” value amounted to 34.952 G in series [3] (2nd dose (100 μM) male, 28d); 32.388 G in series [3] (2nd dose (100 μM) male, initial); 23.104 G in series [3] (3rd dose (50 μM) female, 7d); 23.97 G in series [3] (3rd dose (50 μM) female, 14d); 24.27 G in series [3] (3rd dose (50 μM) female, 21d); 25.092 G in series [3] (3rd dose (50 μM) female, 28d). The “Weight, group average” value in series [3] (3rd dose (50 μM) female, initial) amounted to 24.338 G; in series [3] (3rd dose (50 μM) male, 7d), 35.528 G; in series [3] (3rd dose (50 μM) male, 14d) it was 36.106 G; in series [3] (3rd dose (50 μM) male, 21d), 36.43 G; in series [3] (3rd dose (50 μM) male, 28d), 38.348 G; in series [3] (3rd dose (50 μM) male, initial), 35.076 G. Also, the tumor size entry in series [1] (setting [5]), in series [1] (15 days) and in series [1] (45 days) was “Tnd” throughout. The “tumor outcome after treatment” value in series [1] is recorded as “completely destroyed”. The tumor size initially in series [1] is 404.93 mm^3 and 301.26 mm^3 and 424.93 mm^3 and 731.33 mm^3 and 600.97 mm^3. In addition, in series [2], the IC50 is 149 µM. Further, the “cardiac muscle: increase in the connective tissue between the muscle fibers” value in series [4] (both, CD1, mouse, 28 day) is given as “higher level compared to the 4 groups”. Moreover, the “cardiac muscle: discus intercalaris” value in series [4] (mouse) was “moderate/high level of erasure”. Further, the “kidney: severity of histopathological findings, compounds compared” value in series [4] (mouse) is given as “more severe”. The “liver: severity of histopathological findings, compounds compared” value in series [4] (mouse) is given as “more severe”.

A word on the IC50: it is the concentration needed to halve the response being measured.
